Laboratory results reported in patent US9198896B2 (priority 2006, dated 2015).
Entries after “also recorded” stand apart in the source; their conditions may differ. Read-outs that look alike come from different tables or passages of the source. Marks after values point to notes of the source that are not given here.

Assays:
[1] = Long-term (chronic) toxicity study, mice; conditions: multiple dose, observed up to 90 days after treatment
Text: (§1) Long-term (chronic) toxicity study: Mode of treatment and dilution by either water or normal saline were identical to acute toxicity study. Chronic toxicity study was made with four species of animals: mice, rat, rabbit and dog.
Mice. For experiment with these animals, 4 batches of mice were used per mode of treatment. Each batch contained 6 animals either male or female weighing 18-25 g. […] In all the cases, control group received water or normal saline in respective manner.
(§2) Total number of animals in each group including control and different modes of treatment: 6 (mice), 5 (rats) and 4 (rabbits). Each set of experiment was repeated 4 times for mice and rats and for rabbits 2 times respectively. […] In Table 3, αWeight of animals for mice and rats in gm and for rabbit in Kg.

[2] = Long-term (chronic) toxicity study, rabbits; conditions: rabbit, long-term treatment
Text: as §1
Rabbits. For experiments with rabbits, two groups were used per mode of treatment. Each group in each mode of treatment consists of 4 animals, either male or female.
However, each animal was placed in a separate cage.
as §2
We also measured the body weights of the animals. […] Besides, we also measured several marker enzymes and metabolites in the blood and sera of dog (see below).

[3] = for Blood cells, remarks: dog and bitch
Text: Hemoglobin was estimated by reacting the blood sample with Drabkin's reagent to convert it to cyanmethemoglobin and measuring the absorbance at 540 nm. Urea was estimated by reacting it with hot acidic diacetylmonoxime in the presence of semicarbarzide and measuring the rose-purple color at 525 nm. Glucose was estimated by glucose oxidase method in the presence of peroxidase and measuring the absorbance of the colored complex of hydroxybenzoate and 4-aminophenazone at 510 nm. Creatinine was measured by reacting it with alkaline picrate and measuring the absorbance of the red-colored complex at 520 nm. Alkaline phosphatase was assayed by its ability to convert phenyl phosphate to inorganic phosphate and phenol. The later reacts with 4-aminoantipyrine to form an orange-red-colored complex, which was measured at 510 nm. Aspartate transaminase was measured by reacting the reaction product oxaloacetate (from the substrate 1-aspartic acid) with 2,4-dinitrophenyl hydrazine. The hydrazone thus formed gives a characteristic brown color when placed in an alkaline medium and was measured at 505 nm. Alanine transaminase was assayed similarly by 2,4-dinitrophenylhydrazine-alkali color reaction; the substrate and products are 1-alanine and pyruvate respectively.
Long-term toxicity test with non-rodents (dog and bitch). Total of 6 animals (4 dogs and 2 bitches) were used for this experiment. The animals were 3-4 months old. Three different modes of treatment were used; two animals received the formulation orally, the other two by intravenous injection and the other two by subcutaneous injection. The total period of treatment was for 4 weeks (5 days per week).
Dogs. For biochemical analysis, blood samples from each individual animal were collected and processed similarly to that of rats. The samples were collected just before the treatment commenced, in mid-phase of the treatment and 7 days after completion of the treatment. The samples were analyzed for the activities of several enzymes and metabolite contents as per the methods described in the respective assay kit and are briefly mentioned before. Hemoglobin estimation and cell count were done with an uncoagulated sample.
However, subcutaneous injections appeared to be painful. The biochemical tests and some hematological studies were performed with blood of the animals, the results of which are presented in the Tables.

[4] = Histological studies with mice; type: in vivo; conditions: oral 0.5 gm/kg once a day for 10 weeks
Text: After end of the treatment, the mice were killed, and several organs were excised and processed for histological studies. Bone marrow cells were taken from the marrow cavity of the femur bone.
Histological studies with mice: Histological studies were done with several organs of mice, and the results are presented in FIG. 1.

[5] = Pharmacokinetics, repeat oral dose study; type: in vivo; conditions: mice; for V / k / half-life at 30 days: oral 100 mg/kg body wt./day; for half-life at 30 days: mouse, whole blood, po, 100 mg/kg, read-out: t½ (converted)
[6] = system: EAC cells; test: Increase in life span study of EAC cell-inoculated mice; type: in vivo; conditions: 14 days from day 3
Method: Increase in life span study. For increase in life span study (ILS), testing was evaluated by calculating the median survival time (MST) of the treated (T) and control (C) groups and expressed as ILS value [(T/C−1)×100].
The treatment started from day 3. The amount of each compound indicated in the parentheses is the amount administered per kg body weight per day.
The day on which 10^5 EAC cells were inoculated into each mouse was considered as day 0. The treatment started from day 3. […] 15 animals received a particular mode of treatment. Control group received only normal saline. […] Each set of experiment was repeated 4 times.

[7] = mice, 1 day: oral 2 g, subcutaneous 1 g, intravenous 0.3 g/kg; observed up to 90 days
[8] = system: EAC cells; test: Increase in body weight of EAC cell-inoculated mice; type: in vivo
[9] = system: ascites sarcoma 180 cells; conditions: Együd and Szent-Györgyi, 1968; cited from earlier work
[10] = time after last dose Up to 48 h
[11] = oral 100 mg/kg/day, last dose day 30
[12] = Table 7, MG 30 mg/kg/day ip 0.5 ml
[13] = Table 7, MG 100 mg/kg/day ip 0.5 ml
[14] = Table 11, MG 30 mg/kg/day ip 0.25 ml
[15] = Table 11, MG 100 mg/kg/day ip 0.25 ml

## CC(=O)C=O [methylglyoxal]
[1]
  death and toxic effect (physical and behavioral): No death and toxic effect
[2]
  general physical conditions and behavioral pattern vs control: no abnormalities
[3]; After treatment
  Blood cells, remarks: Mild hypochromia; also recorded: No abnormal cells
[3]; Mid-phase treatment
  Blood cells, remarks: Mild hypochromia; also recorded: No abnormal cells
[3]; dog, in vivo
  Basophils: 0%
[3]; dog, long-term treatment
  general physical conditions and behavioral pattern vs control: no abnormalities
[3]; dogs, during and after the treatment (90 days)
  death: no death occurred
[4]
  histological examination of organs (liver, kidney, spleen, duodenum, bone marrow): none of the organs tested by histological examination had any adverse effect
[5]; time after last dose 48-120 h
  V: 50.89 L/kg
  k: 0.0231 h − 1
  half-life at 30 days: 30 h
[5]; [10]
  V: 73.90 L/kg
  k: 0.0017 h − 1
  half-life at 30 days: 408 h
[5]; [11]
  day from which peak concentration was achieved: three
  day on which the basal level was reached: ~35 days
[6]; [12]
  60 day survivors/15 animals: 1
  ILS value: 34%
  Median survival time: 26 days
[6]; [13]
  60 day survivors/15 animals: 10
  ILS value: Cure
  Median survival time: Indefinite
[6]; [14]
  60 day survivors/15 animals: 1
  ILS value (Median survival time of (Treated/Control − 1) × 100]): 35%
  Median survival time: 27 days
[6]; [15]
  60 day survivors/15 animals: 11
  ILS value (Median survival time of (Treated/Control − 1) × 100]): Cure
  Median survival time: Indefinite
[7]
  death: No death
[8]; Table 8, MG 30 mg/kg/day, Day 15
  Percent increase in body weight: 15.8 ± 1.3%
[8]; Table 8, MG 30 mg/kg/day, Day 20
  Percent increase in body weight: 19.0 ± 1.6%
[8]; Table 8, MG 30 mg/kg/day, Day 25
  Percent increase in body weight: 30.0 ± 2.9%
[8]; Table 8, MG 30 mg/kg/day, Day 30
  Percent increase in body weight: 32.9 ± 3.0%
[8]; Table 8, MG 30 mg/kg/day, Day 35, 2 animals survived out of 6
  Percent increase in body weight: 38.8 ± 3.0^b %
[8]; Table 8, MG 100 mg/kg/day, Day 15
  Percent increase in body weight: 8.0 ± 0.7%
[8]; Table 8, MG 100 mg/kg/day, Day 20
  Percent increase in body weight: 10.0 ± 1.2%
[8]; Table 8, MG 100 mg/kg/day, Day 25
  Percent increase in body weight: 11.0 ± 1.0%
[8]; Table 8, MG 100 mg/kg/day, Day 30
  Percent increase in body weight: 11.2 ± 0.9%
[8]; Table 8, MG 100 mg/kg/day, Day 35
  Percent increase in body weight: 11.2 ± 1.1%
[8]; Table 10, MG 30 mg/kg/day ip, Day 20
  Percent increase in body weight: 19.0 ± 1.6%
[8]; Table 10, MG 30 mg/kg/day ip, Day 30
  Percent increase in body weight: 32.9 ± 3.0%
[8]; Table 10, MG 100 mg/kg body weight/day ip, Day 30
  Percent increase in body weight: 11.2 ± 0.9%
[8]; Table 10, MG 100 mg/kg body weight/day ip, Day 35
  Percent increase in body weight: 11.2 ± 1.1%
[9]
  tumor development: no tumor developed
